In PMC12508460 (Nature Communications, 2025):
Residue numbers refer to the chain shown, from its start.

Key:
WT DP1 = molecular target: T1, WT DP1 (Homo sapiens, UniProt Q13258); assay: Cyclic AMP GloSensor assay
T1 sequence (Q13258 1-359): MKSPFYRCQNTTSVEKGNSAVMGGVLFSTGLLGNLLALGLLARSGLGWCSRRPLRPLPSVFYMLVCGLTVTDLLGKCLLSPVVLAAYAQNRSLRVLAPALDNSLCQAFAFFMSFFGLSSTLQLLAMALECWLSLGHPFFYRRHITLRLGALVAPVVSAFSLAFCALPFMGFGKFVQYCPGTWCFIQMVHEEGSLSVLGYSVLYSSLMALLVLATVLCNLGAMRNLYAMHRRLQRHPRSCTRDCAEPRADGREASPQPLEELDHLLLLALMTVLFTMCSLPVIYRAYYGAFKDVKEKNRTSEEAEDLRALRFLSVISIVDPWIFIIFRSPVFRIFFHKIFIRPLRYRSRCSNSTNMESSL

DP1 R327^8.47A = molecular target: T2, DP1 R327^8.47A (Homo sapiens, UniProt Q13258, R327A); assay: ONE-GO BRET Gs protein activation assay; assay type: cell-based
T2 sequence (Q13258 1-359 R327A): T1 sequence (Q13258 1-359) with R327A

SMILES | EC50 (WT DP1) [nM] | Effect on basal activity of DP1 in cAMP accumulation assays (WT DP1) | Reduction of the potency of PGD2 by the R327^8.47A mutation (DP1 R327^8.47A)
Cc1cc(OC[C@@H]2CN(C)c3ccccc3O2)cc(C)c1C(=O)Nc1ccc(Cl)c(CC(=O)O)c1 [ONO2550289, (S)-2-(2-chloro-5-(2,6-dimethyl-4-((4-methyl-3,4-dihydro-2H-benzo[b][1,4]oxazin-2-yl)methoxy)benzamido)phenyl)acetic acid] | 1.1 | fully inhibit the basal activity | 
Cc1cc(OC[C@@H]2CN(C)c3ccccc3O2)cc(C)c1C(=O)Nc1ccc(Cl)c(C2(C(=O)O)CC2)c1 [ONO3030297, (S)-1-(2-chloro-5-(2,6-dimethyl-4-((4-methyl-3,4-dihydro-2H-benzo[b][1,4]oxazin-2-yl)methoxy)benzamido)phenyl)cyclopropane-1-carboxylic acid] | 1.3 | fully inhibit the basal activity | 
CCCCC[C@H](O)/C=C/[C@H]1C(=O)C[C@H](O)[C@@H]1C/C=C\CCCC(=O)O [PGD2, Prostaglandin D2] | 6.2 |  | over 70 fold
